{"source": "patent US8148424B2", "about": "“Tocopherols, tocotrienols, other chroman and side chain derivatives and uses thereof” (Research Development Foundation, priority 1998, dated 2012)", "key": {"[1]": {"test_system": "Fas/Fas ligand signaling pathway", "experiment": "Fas/Fas ligand apoptotic signaling in Fas resistant tumor cells", "type": "cell-based, human", "from_the_text": "Activated Fas/Fas ligand signaling may lead to rapid cell death by apoptosis. Thus, for tumor cells to escape death by Fas/Fas ligand, they must inactivate this most important apoptotic pathway. The mechanism for inactivation of the Fas/Fas ligand signaling pathway by tumor cells varies; however, many tumor cells down regulate the expression of Fas receptor and Fas ligand on their membranes."}, "[2]": {"test_system": "Jurkat", "experiment": "Bioassay for apoptosis (apoptotic EC50)", "type": "cell-based, human", "conditions": "Homo sapiens, unit inferred", "how_it_was_run": "(§1)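 Read-out: percent apoptotic cells, scored by microscopy as condensed/fragmented chromatin (DAPI, 2 μg/ml, 15 min, 37° C) or TUNEL-positive fragmented DNA. Compounds tested at 0.01, 0.1, 1, 5, 10 and 20 μg/mL for 1–3 days on overnight-adhered cells.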"}, "[3]": {"test_system": "PC-3", "experiment": "Bioassay for apoptosis (apoptotic EC50)", "type": "cell-based, human", "conditions": "PC-3; unit not given; in µg/mL", "how_it_was_run": "(§2)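 Apoptosis was quantified microscopically after 1, 2 or 3 days of exposure to test compounds (0.01–20 μg/mL). Cells showing condensed or fragmented nuclear chromatin on DAPI staining, or fragmented DNA by TUNEL, counted as apoptotic.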"}, "[4]": {"test_system": "LnCaP", "experiment": "Bioassay for apoptosis (apoptotic EC50)", "type": "cell-based, human", "conditions": "Homo sapiens, unit inferred", "how_it_was_run": "as §2"}, "[5]": {"test_system": "A-549", "experiment": "Bioassay for apoptosis (apoptotic EC50)", "type": "cell-based, human", "conditions": "Homo sapiens, A549, unit inferred", "how_it_was_run": "as §1"}, "[6]": {"test_system": "C-170", "experiment": "Bioassay for apoptosis (apoptotic EC50)", "type": "cell-based, human", "conditions": "Homo sapiens, C170, C-170; unit inferred", "how_it_was_run": "as §2"}, "[7]": {"test_system": "RL-95-2", "experiment": "Bioassay for apoptosis (apoptotic EC50)", "type": "cell-based, human", "conditions": "Homo sapiens, RL95-2, RL-95-2; unit inferred", "how_it_was_run": "as §2"}, "[8]": {"test_system": "HL-60", "experiment": "Bioassay for apoptosis (apoptotic EC50)", "type": "cell-based, human", "conditions": "HL-60; unit not given; in µg/mL", "how_it_was_run": "as §2"}, "[9]": {"test_system": "ME-180", "experiment": "Bioassay for apoptosis (apoptotic EC50)", "type": "cell-based, human", "conditions": "ME-180; unit not given; in µg/mL", "how_it_was_run": "as §2"}, "[10]": {"test_system": "MDA-MB-231", "experiment": "Bioassay for apoptosis (apoptotic EC50)", "type": "cell-based, human", "conditions": "MDA-MB-231; unit not given; in µg/mL", "how_it_was_run": "as §2"}, "[11]": {"test_system": "MCF-7", "experiment": "Bioassay for apoptosis (apoptotic EC50)", "type": "cell-based, human", "conditions": "MCF-7; unit not given; in µg/mL", "how_it_was_run": "as §2"}, "[12]": {"test_system": "MDA-MB-435", "experiment": "Bioassay for apoptosis (apoptotic EC50)", "type": "cell-based, human", "conditions": "MDA-MB-435; unit not given; in µg/mL", "how_it_was_run": "as §2"}, "[13]": {"test_system": "DLD-1", "experiment": "Bioassay for apoptosis (apoptotic EC50)", "type": "cell-based, human", "conditions": "Homo sapiens, unit inferred", "how_it_was_run": "as §1"}, "[14]": {"test_system": "DU-145", "experiment": "Bioassay for apoptosis (apoptotic EC50)", "type": "cell-based, human", "conditions": "Homo sapiens, unit inferred", "how_it_was_run": "as §1"}, "[15]": {"test_system": "HT-29", "experiment": "Bioassay for apoptosis (apoptotic EC50)", "type": "cell-based, human", "conditions": "Homo sapiens, unit inferred", "how_it_was_run": "as §1"}, "[16]": {"procedure": "Prior to conducting the preclinical chemotherapeutic studies, compound 1 is assayed in non-tumor Balb/c female mice in an effort to establish the maximum tolerated dose. Compound 1 is dissolved in 100% ethanol to establish a stock solution (2 grams of compound 1 in 5 mls of 100% ethanol) and diluted in peanut oil (non vitamin E supplemented) to yield 20, 10, and 5 mg/0.1 ml. RRR-α-tocopherol succinate (VES; the succinate moiety is attached to RRR-α-tocopherol via an ester linkage) was solubilized and diluted as described above to yield 20 mg/0.1 ml/gavage, serving as an additional control. A total of 30 Balb/c female mice were placed into 6 groups (5 mice/group) and supplemented by gavage with compound 1 daily for a total of 23 days. Group 1 mice were non treated and served a s control; group 2 mice were the vehicle control group and received 0.1 ml of vehicle (ethanol+peanut oil equivalent to treatment groups)/mouse/day for a total of 23 days, […] of VES daily for a total of 23 days. Treatment groups […] were gavaged daily for 23 days with 5, 10, and 20 mgs of compound 1."}, "[17]": {"test_system": "MDA-MB-435 cells", "experiment": "Apoptosis by DAPI staining (Example 8)", "type": "cell-based, human", "conditions": "Homo sapiens, 72 h; MDA-MB-435; 2% serum; DAPI staining at three day treatment", "procedure": "(§3) MDA-MB-435 and MCF-7 cells at 1.5×10^5/well in 12 well plates for apoptosis and 1.5×10^4/well in 96 well plates for DNA synthesis arrest were incubated overnight in culture media and treated with α-tocopherol, α-tocotrinel, compound 1, 6-0-carboxymethyl alpha-tocotrienol (6-0-CM-α-T, 44), and vitamin E succinate (VES) at different concentrations in experimental media (2% serum for MDA-MB-435 cells and 5% serum for MCF-7 cells). DNA synthesis arrest was determined by ^3H-uptake at one day treatment and apoptosis was detected by DAPI staining at three day treatment. EC50 was calculated as the dosage of test compounds that gave 50% growth inhibition."}, "[18]": {"test_system": "MCF-7 cells", "experiment": "Apoptosis by DAPI staining (Example 8)", "type": "cell-based, human", "conditions": "Homo sapiens, MCF7, 72 h, 5% serum, DAPI staining at three day treatment", "procedure": "as §3"}, "[19]": {"test_system": "human cancer cells from a wide variety of cell lineages", "experiment": "Apoptosis induction in a battery of tumor cells", "type": "cell-based", "conditions": "breast, prostate, leukemia/lymphoid, cervical, ovarian, endometrial, colon, lung cell lines", "procedure": "Cells were cultured at 1.5×10^5 cells/well in 12 well plates. Cells were allowed to adhere overnight, then incubated with novel test compounds at 0.01, 0.1, 1, 5, 10 & 20 μg/mL for 1, 2 and 3 days. After treatment, cells (floating+trypsin released adherent cells) were pelleted, washed and stained with 2 μg/ml DAPI (4′,6-diamidine-2′-phenylindole dihydrochloride) in 100% methanol for 15 minutes at 37° C. and/or 3′-OH ends resulting from DNA fragmentation were detected with the TUNEL (terminal deoxynucleotidyl transferase-mediated dUTP-X 3′ nick end-labeling) technique, and then viewed using a Zeiss ICM 405 microscope. Cells whose nucleus contained clearly condensed or fragmented chromatin or stained for fragmented DNA in the TUNEL assay were scored as apoptotic. Data are presented as percent cells undergoing apoptosis."}, "[20]": {"test_system": "MDA-MB-435 cells", "experiment": "DNA synthesis arrest by 3H-uptake (Example 8)", "type": "cell-based, human", "conditions": "Homo sapiens; MDA-MB-435; 2% serum; 3H-uptake at one day treatment", "procedure": "as §3"}, "[21]": {"test_system": "MCF-7 cells", "experiment": "DNA synthesis arrest by 3H-uptake (Example 8)", "type": "cell-based, human", "conditions": "Homo sapiens, MCF7, 5% serum, 3H-uptake at one day treatment", "procedure": "as §3"}, "[22]": {"test_system": "P21 in MDA-MB-435 human breast cancer cells", "experiment": "P21 expression", "type": "cell-based", "from_the_text": "The mechanisms of growth inhibition by DNA synthesis arrest, cell cycle arrest and by induction of cellular differentiation have not been characterized as fully as the mechanism of growth inhibition by apoptosis. […] Tumor cells cultured with the compounds disclosed herein are growth inhibited in the G1 cell cycle phase, undergo morphological changes and express milk lipids, an indication that the cell cycle blocked cells have undergone differentiation."}, "[23]": {"experiment": "Solubility in ethanol (stock solution)", "type": "physicochemical", "conditions": "in 5 mls of 100% ethanol, vortex at 37° C.", "from_the_text": "This is the maximum amount of compound 1 that will go into solution."}}, "data": [{"smiles": "Cc1c(C)c2c(c(C)c1OCC(=O)O)CC[C@@](C)(CCC[C@H](C)CCC[C@H](C)CCCC(C)C)O2", "note": "[Compound 1, 2,5,7,8-tetramethyl-(2R-(4R,8R,12-trimethyltridecyl)chroman-6-yloxy)acetic acid]", "values": [{"measurement": "Fas receptor localisation", "setting": "[1]; Fas signaling resistant human breast cancer cells", "value": "transported from the cytoplasm to the membrane"}, {"measurement": "Fas/Fas ligand sensitivity of resistant tumor cells", "setting": "[1]; Fas/Fas ligand resistant tumor cells", "value": "induce Fas/Fas ligand resistant tumor cells to become Fas/Fas ligand sensitive"}, {"measurement": "anti-Fas triggered apoptosis, co-treatment", "setting": "[1]; human breast and prostate cancer cells, co-treated versus separately", "value": "synergistic"}, {"measurement": "EC50", "setting": "[2]", "value": "10 to 20", "unit": "µg/mL"}, {"measurement": "apoptotic EC50", "setting": "[3]", "value": "5-10"}, {"measurement": "EC50", "setting": "[4]", "value": "5 to 10", "unit": "µg/mL"}, {"measurement": "EC50", "setting": "[5]", "value": "10 to 20", "unit": "µg/mL"}, {"measurement": "EC50", "setting": "[6]", "value": "10 to 20", "unit": "µg/mL"}, {"measurement": "EC50", "setting": "[7]", "value": "10 to 20", "unit": "µg/mL"}, {"measurement": "apoptotic EC50", "setting": "[8]", "value": "5-10"}, {"measurement": "apoptotic EC50", "setting": "[9]", "value": "1-5"}, {"measurement": "apoptotic EC50", "setting": "[10]", "value": "5-10"}, {"measurement": "apoptotic EC50", "setting": "[11]", "value": "5-10"}, {"measurement": "apoptotic EC50", "setting": "[12]", "value": "5-10"}, {"measurement": "EC50", "setting": "[13]", "value": "10 to 20", "unit": "µg/mL"}, {"measurement": "EC50", "setting": "[14]", "value": "5 to 10", "unit": "µg/mL"}, {"measurement": "EC50", "setting": "[15]", "value": "10 to 20", "unit": "µg/mL"}, {"measurement": "toxicity upon autopsy", "setting": "[16]; at completion of the MTD studies", "value": "no evidence of toxicity"}, {"measurement": "weights of the mice versus VES treated, untreated and vehicle treated controls", "setting": "[16]; mouse, in vivo", "value": "no significant difference"}, {"measurement": "EC50", "setting": "[17]", "value": 30, "unit": "µM"}, {"measurement": "EC50", "setting": "[18]", "value": 36, "unit": "µM"}, {"measurement": "growth inhibitory (apoptotic inducing) properties specific for human cancer cells", "setting": "[19]", "value": "effective"}, {"measurement": "EC50", "setting": "[20]", "value": 15, "unit": "µM"}, {"measurement": "EC50", "setting": "[21]", "value": 20, "unit": "µM"}, {"measurement": "P21 mRNA and protein", "setting": "[22]", "value": "up-regulated"}, {"measurement": "maximum amount that will go into solution", "setting": "[23]", "value": 2, "unit": "grams"}]}]}
